11 compounds from ChEMBL document CHEMBL3352668, “Synthesis and antibacterial evaluation of new, unsymmetrical triaryl bisamidine compounds” (Bioorg Med Chem Lett, 2014) can be followed below.

≈ marks a conversion by molar mass, not a printed value.

Series [1] has as its system Escherichia coli. The experiment in a line: Antimicrobial activity against TolC-deficient Escherichia coli by CLSI method. Particulars: Escherichia coli; read-out: MIC. It is filed as functional.
The subject of series [2] is Bacillus subtilis. The experiment in a line: Antimicrobial activity against Bacillus subtilis BD54 by CLSI method. It is filed as functional. To be noted: Bacillus subtilis, BD54; read-out: MIC.
Series [3] in a line: Cytotoxicity against human HeLa cells by MTS assay. It counts as cell-based. Particulars: HeLa cells. (Formazan colour is commonly taken as a measure of viable cells.)
Series [4] concerns Enterococcus faecalis. The experiment in a line: Antimicrobial activity against vancomycin-resistant Enterococcus faecalis ATCC 51575 by CLSI method. It counts as functional. To be noted: Enterococcus faecalis, ATCC 51575; read-out: MIC.
For series [5], the system named is Escherichia coli. The experiment in a line: Antimicrobial activity against TolC+ Escherichia coli 700 by CLSI method. It counts as functional. To be noted: Escherichia coli, 700; read-out: MIC.
The test system of series [6] is Pseudomonas aeruginosa. The experiment in a line: Antimicrobial activity against Pseudomonas aeruginosa PAO1 by CLSI method. It is filed as functional. Particulars: Pseudomonas aeruginosa, PAO1; read-out: MIC.
Series [7] relates to Staphylococcus aureus. The experiment in a line: Antimicrobial activity against methicillin-resistant Staphylococcus aureus 1094 by CLSI method. To be noted: Staphylococcus aureus, 1094; read-out: MIC. It counts as functional.
In series [8] the test system is Bacillus anthracis. The experiment in a line: Antimicrobial activity against Bacillus anthracis Sterne by CLSI method. It is filed as functional. To be noted: Bacillus anthracis, Sterne; read-out: MIC.
Series [9] deals with Klebsiella pneumoniae. The experiment in a line: Antimicrobial activity against Klebsiella pneumoniae 13882 by CLSI method. It counts as functional. Particulars: Klebsiella pneumoniae, 13882; read-out: MIC.

The MIC is the least concentration at which growth counts as inhibited. The term CC50 denotes the concentration that lowers cell viability or growth by half. As for `c1cc2cc(-c3ccc(-c4cc5ccc(C6=NCCN6)cc5o4)s3)[nH]c2cc1C1=NCCN1`, the MIC in [1] is 0.27 µg/mL (≈ 0.598 µM); in series [2] it was 0.16 µg/mL (≈ 0.354 µM); in series [4], 1.56 µg/mL (≈ 3.45 µM); in series [5] it was 2.8 µg/mL (≈ 6.2 µM); in series [6] it was 66.7 µg/mL (≈ 148 µM); in series [7], 0.94 µg/mL (≈ 2.08 µM). The MIC in series [8] turned out to be 1.09 µg/mL (≈ 2.41 µM); in [9], 60 µg/mL (≈ 133 µM). Moreover, half-maximal cytotoxicity in series [3] (CC50) was put at 182 µg/mL (≈ 403 µM).
`COC1CN=C(c2ccc3cc(-c4ccc(-c5cc6ccc(C7=NCC(OC)CN7)cc6o5)cc4)[nH]c3c2)NC1` (stereo not drawn): the MIC is 0.24 µg/mL (≈ 0.45 µM) in series [1]; 0.08 µg/mL (≈ 0.15 µM) in series [2]; 0.63 µg/mL (≈ 1.18 µM) in series [4]; 2.5 µg/mL (≈ 4.68 µM) in series [5]; above 80 µg/mL in series [6]; 0.31 µg/mL (≈ 0.581 µM) in series [7]. Also, the minimal inhibitory concentration (MIC) in series [8] was 0.31 µg/mL (≈ 0.581 µM); in [9], 1.25 µg/mL (≈ 2.34 µM). The compound further showed a CC50 in series [3] of 6 µg/mL (≈ 11.2 µM).
As to `CC1CN=C(c2ccc3cc(-c4ccc(-c5cc6ccc(C7=NCC(C)CN7)cc6o5)cn4)[nH]c3c2)NC1` (stereo not drawn), the minimal inhibitory concentration (MIC) in [1] was 0.27 µg/mL (≈ 0.537 µM); in series [2], 0.08 µg/mL (≈ 0.159 µM); in series [4], 0.63 µg/mL (≈ 1.25 µM); in series [5] it was 1.88 µg/mL (≈ 3.74 µM); in series [6], 5 µg/mL (≈ 9.95 µM); in [7] it was 0.31 µg/mL (≈ 0.617 µM). Further, the MIC in [8] was 0.63 µg/mL (≈ 1.25 µM); in series [9], 2.5 µg/mL (≈ 4.97 µM). In addition, half-maximal cytotoxicity in series [3] (CC50) was put at 2.2 µg/mL (≈ 4.38 µM).
Take `c1cc2cc(-c3ccc(-c4cn5cc(C6=NCCN6)ccc5n4)cc3)[nH]c2cc1C1=NCCN1`: the MIC was 0.63 µg/mL (≈ 1.41 µM) in series [1]; 0.31 µg/mL (≈ 0.696 µM) in series [2]; 20 µg/mL (≈ 44.9 µM) in series [4]; 40 µg/mL (≈ 89.8 µM) in series [5]; above 80 µg/mL in [6]; 80 µg/mL (≈ 180 µM) in series [7]. For the same compound, the MIC in series [8] was 40 µg/mL (≈ 89.8 µM); in [9] it was 80 µg/mL (≈ 180 µM).
With `CC1CNC(c2ccc3cc(-c4ccc(-c5ccc(N(C)C)cc5)cc4)[nH]c3c2)=N1` (stereo not drawn), the minimal inhibitory concentration (MIC) in [1] was above 80 µg/mL; in [2], 0.63 µg/mL (≈ 1.6 µM); in series [4] it was 3.3 µg/mL (≈ 8.36 µM); in series [5] it was above 80 µg/mL; in series [6] it was above 80 µg/mL; in series [7] it was 1.04 µg/mL (≈ 2.64 µM). The figures for the MIC in series [8] and in series [9] were 2.1 µg/mL (≈ 5.32 µM) and above 80 µg/mL, respectively. In addition, the 50% cytotoxic concentration (CC50) in series [3] is at most 0.63 µg/mL.
Turning to `Fc1cc(-c2cc3ccc(C4=NCCCN4)cc3[nH]2)ccc1-c1cc2ccc(C3=NCCCN3)cc2o1`, the MIC in series [1] amounted to 0.31 µg/mL (≈ 0.631 µM); in [2], 0.08 µg/mL (≈ 0.163 µM); in series [4] it was 0.16 µg/mL (≈ 0.325 µM); in series [5], 0.63 µg/mL (≈ 1.28 µM); in series [6], 2.5 µg/mL (≈ 5.09 µM); in series [7] it was 0.16 µg/mL (≈ 0.325 µM). The MIC in [8] is 0.08 µg/mL (≈ 0.163 µM); in [9], 0.63 µg/mL (≈ 1.28 µM). The 50% cytotoxic concentration (CC50) in series [3] is 14.3 µg/mL (≈ 29.1 µM).
As for `c1cc2cc(-c3ccc(-c4cc5ccc(C6=NCCCN6)cc5o4)s3)[nH]c2cc1C1=NCCCN1`, the minimum inhibitory concentration (MIC) stood at 0.31 µg/mL (≈ 0.646 µM) in series [1]; 0.08 µg/mL (≈ 0.167 µM) in [2]; 0.31 µg/mL (≈ 0.646 µM) in [4]; 0.63 µg/mL (≈ 1.31 µM) in [5]; 10 µg/mL (≈ 20.9 µM) in [6]; 0.31 µg/mL (≈ 0.646 µM) in [7]. Besides, the minimal inhibitory concentration (MIC) in series [8] worked out at 0.16 µg/mL (≈ 0.334 µM); in [9], 2.5 µg/mL (≈ 5.21 µM). In [3], this compound came in with a CC50 of 8.7 µg/mL (≈ 18.1 µM).
As to `Cc1c(-c2ccc(-c3cc4ccc(C5=NCCCN5)cc4o3)cc2)[nH]c2cc(C3=NCCCN3)ccc12`, the minimal inhibitory concentration (MIC) in [1] came to 0.31 µg/mL (≈ 0.636 µM); in series [2], 0.08 µg/mL (≈ 0.164 µM); in series [4], 0.16 µg/mL (≈ 0.328 µM); in series [5], 0.31 µg/mL (≈ 0.636 µM); in [6] it was 1.25 µg/mL (≈ 2.56 µM); in [7] it was 0.16 µg/mL (≈ 0.328 µM). Further, the MIC came to 0.08 µg/mL (≈ 0.164 µM) in series [8] and 0.31 µg/mL (≈ 0.636 µM) in series [9]. In series [3], it took 1.5 µg/mL (≈ 3.08 µM) to reach half-maximal cytotoxicity (CC50).
For `FC1CN=C(c2ccc3cc(-c4ccc(-c5cc6ccc(C7=NCC(F)CN7)cc6o5)s4)[nH]c3c2)NC1` (stereo not drawn), the minimal inhibitory concentration (MIC) worked out at 0.31 µg/mL (≈ 0.601 µM) in series [1]; 0.16 µg/mL (≈ 0.31 µM) in [2]; 0.63 µg/mL (≈ 1.22 µM) in [4]; 1.25 µg/mL (≈ 2.42 µM) in series [5]; 53.3 µg/mL (≈ 103 µM) in series [6]; 0.63 µg/mL (≈ 1.22 µM) in series [7]. The figures for the MIC in [8] and in series [9] were 0.31 µg/mL (≈ 0.601 µM) and 2.5 µg/mL (≈ 4.85 µM), respectively. The compound also gave a CC50 in series [3] of 22.5 µg/mL (≈ 43.6 µM).
On to `c1cc2cc(-c3ccc(-c4cnc(N5CCOCC5)nc4)cc3)[nH]c2cc1C1=NCCCN1`, for which the MIC in [1] was 0.63 µg/mL (≈ 1.44 µM); in series [2] it was 0.78 µg/mL (≈ 1.78 µM); in series [4], 3.75 µg/mL (≈ 8.55 µM); in series [5], 35 µg/mL (≈ 79.8 µM); in series [6] it was above 80 µg/mL; in [7], 7.5 µg/mL (≈ 17.1 µM). For the same compound, the minimal inhibitory concentration (MIC) in series [8] worked out at 0.55 µg/mL (≈ 1.25 µM); in series [9], 70 µg/mL (≈ 160 µM). For the same compound, in [3], the CC50 came to 2 µg/mL (≈ 4.56 µM).
`CC1CNC(c2ccc3cc(-c4ccc(-c5cnc(N6CCCC6)nc5)cc4)[nH]c3c2)=N1` (stereo not drawn): the MIC in [1] is 40 µg/mL (≈ 94.7 µM); in [2] it was 40 µg/mL (≈ 94.7 µM); in series [4], above 80 µg/mL; in series [5], above 80 µg/mL; in series [6], above 80 µg/mL; in series [7], 40 µg/mL (≈ 94.7 µM). The values for the minimal inhibitory concentration (MIC) in series [8] and in series [9] were 40 µg/mL (≈ 94.7 µM) and above 80 µg/mL, respectively. The compound also had a 50% cytotoxic concentration (CC50) in series [3] of 1.1 µg/mL (≈ 2.6 µM).
